In patent US20110021565A1, “PIPERIDINE DERIVATIVES AS NK3 ANTAGONISTS” (priority 2007, published 2011) one finds Ki data, which are given here for 24 molecules.

The experiment deals with T1, recombinant human NK3 receptor (Homo sapiens, UniProt P29371).
T1 construct: expressed in transfected cells; host or cells: HEK293 cells, transient expression; membrane preparation
T1 sequence (P29371 1-465): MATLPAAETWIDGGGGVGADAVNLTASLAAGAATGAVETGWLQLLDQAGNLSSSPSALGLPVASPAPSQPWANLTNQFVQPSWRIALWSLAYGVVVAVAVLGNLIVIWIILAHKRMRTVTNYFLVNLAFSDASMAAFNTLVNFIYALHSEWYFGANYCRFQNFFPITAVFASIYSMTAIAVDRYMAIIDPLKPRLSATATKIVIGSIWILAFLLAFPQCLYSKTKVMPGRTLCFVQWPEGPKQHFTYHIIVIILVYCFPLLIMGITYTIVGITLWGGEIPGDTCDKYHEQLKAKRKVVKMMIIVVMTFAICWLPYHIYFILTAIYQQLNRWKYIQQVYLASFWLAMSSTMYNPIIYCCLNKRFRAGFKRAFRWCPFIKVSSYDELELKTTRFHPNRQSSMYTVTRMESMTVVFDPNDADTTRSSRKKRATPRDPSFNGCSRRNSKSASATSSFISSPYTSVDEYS
Description: [3H]SR142801 competition binding assay. The essentials:
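Membranes from HEK293 cells transiently expressing the receptor (5 μg protein/well) incubated 75 min at RT with [3H]SR142801 at its KD and 10 compound concentrations (0.0003-10 μM), in pH 7.4 Tris buffer with MnCl2, phosphoramidon and BSA. Nonspecific binding defined with 10 μM SB222200; bound radioactivity counted after filtration. Ki from IC50 via Cheng-Prusoff; duplicates.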

Setting [1] is: [3H]SR142801, membranes of HEK293 cells transiently expressing recombinant human NK3 receptor, read-out: hNK3 Ki.
The mark [2] stands for this setting: representative compounds, [3H]SR142801, HEK293 membranes, human NK3 receptor, read-out: Ki NK3 h.

Like-named read-outs stand apart in the source and are kept apart here.

As for `CC(CCN1CCC(NS(C)(=O)=O)CC1)(C(=O)NCc1cc(C(F)(F)F)cc(C(F)(F)F)c1)c1ccc(Cl)c(Cl)c1` (stereo not shown) [Example 4, N-(3,5-Bis-trifluoromethyl-benzyl)-2-(3,4-dichloro-phenyl)-4-(4-methanesulfonyl-amino-piperidin-1-yl)-2-methyl-butyramide], the inhibition constant Ki (usually the equilibrium dissociation constant of an inhibitor or competing ligand from its target) under setting [1] worked out at 140 nM.
Turning to `CN(Cc1ccc(F)c(C(F)(F)F)c1)C(=O)C(F)(CCN1CCC(NS(C)(=O)=O)CC1)c1ccc(Cl)c(Cl)c1` (stereo not shown) [Example 64, 2-(3,4-Dichloro-phenyl)-2-fluoro-N-(4-fluoro-3-trifluoromethyl-benzyl)-4-(4-methanesulfonyl-amino-piperidin-1-yl)-N-methyl-butyramide], the Ki under setting [1] was 122 nM.
Take `CCN(C1CCN(CCC(C)(C(=O)NCc2ccc(Cl)c(Cl)c2)c2ccc(Cl)c(Cl)c2)CC1)S(C)(=O)=O` (stereo not shown) [Example 71, N-(3,4-Dichloro-benzyl)-2-(3,4-dichloro-phenyl)-4-[4-(ethyl-methanesulfonyl-amino)-piperidin-1-yl]-2-methyl-butyramide]: the Ki was 2.8 nM under setting [1] and 2.8 nM under setting [2].
As for `COc1ccc(C(NC(=O)C(C)(CCN2CCC(NS(C)(=O)=O)CC2)c2ccc(Cl)c(Cl)c2)C2CC2)cc1` (stereo not shown) [Example 2, N-[Cyclopropyl-(4-methoxy-phenyl)-methyl]-2-(3,4-dichloro-phenyl)-4-(4-methanesulfonyl-amino-piperidin-1-yl)-2-methyl-butyramide], the Ki under setting [1] came out at 703 nM.
The same measure, in the same setting: the value for `COCCN(C(C)=O)C1CCN(CCC(C)(C(=O)N[C@H](CO)c2ccc(Cl)c(Cl)c2)c2ccc(Cl)c(Cl)c2)CC1` (stereo partly drawn) [Example 149, 4-{4-[Acetyl-(2-methoxy-ethyl)-amino]-piperidin-1-yl}-2-(3,4-dichloro-phenyl)-N-[(S)-1-(3,4-dichloro-phenyl)-2-hydroxy-ethyl]-2-methyl-butyramide (diastreoisomer 2)] was 19.4 nM; that for `CN(Cc1ccc(C(F)(F)F)cc1)C(=O)C(CCN1CCC(NS(C)(=O)=O)CC1)c1ccc(Cl)c(Cl)c1` (stereo not shown) [Example 33, 2-(3,4-Dichloro-phenyl)-4-(4-methanesulfonyl-amino-piperidin-1-yl)-N-methyl-N-(4-trifluoromethyl-benzyl)-butyramide] was 81.6 nM.
As for `CC(=O)N(C)C1CCN(CCC(C)(C(=O)N(C)Cc2ccc(Cl)c(Cl)c2)c2ccc(Cl)c(Cl)c2)CC1` (stereo not shown) [Example 100, 4-[4-(Acetyl-methyl-amino)-piperidin-1-yl]-N-(3,4-dichloro-benzyl)-2-(3,4-dichloro-phenyl)-2,N-dimethyl-butyramide], the inhibition constant (Ki) runs as follows: under setting [1], 3 nM; under setting [2], 3 nM.
With `CC(=O)NC1CCN(CCC(C)(C(=O)N[C@@H](CO)c2ccc(F)cc2)c2ccc(Cl)c(Cl)c2)CC1` (single isomer, unassigned; diastereoisomer 1) [Example 154, 4-(4-Acetylamino-piperidin-1-yl)-2-(3,4-dichloro-phenyl)-N-[1-(4-fluoro-phenyl)-2-hydroxy-ethyl]-2-methyl-butyramide (diastereoisomer 1)], the Ki under setting [1] is 170 nM.
Still for that read-out and setting: the value for `CN(Cc1ccccc1Cl)C(=O)C(F)(CCN1CCC(NS(C)(=O)=O)CC1)c1ccc(Cl)c(Cl)c1` (stereo not shown) [Example 68, N-(2-Chloro-benzyl)-2-(3,4-dichloro-phenyl)-2-fluoro-4-(4-methanesulfonyl-amino-piperidin-1-yl)-N-methyl-butyramide] was 159 nM.
For `CN(Cc1cccc(Cl)c1)C(=O)C(C)(CCN1CCC(N2CCCC2=O)CC1)c1ccc(Cl)c(Cl)c1` (stereo not shown) [Example 87, N-(3-Chloro-benzyl)-2-(3,4-dichloro-phenyl)-2,N-dimethyl-4-[4-(2-oxo-pyrrolidin-1-yl)-piperidin-1-yl]-butyramide], the Ki is, setting by setting: under setting [1], 4.6 nM; under setting [2], 4.6 nM.
Take `CC(NC(=O)C(C)(CCN1CCC(N2CCCC2=O)CC1)c1ccc(Cl)c(Cl)c1)c1ccccc1` (stereo not shown) [Example 91, 2-(3,4-Dichloro-phenyl)-2-methyl-4-[4-(2-oxo-pyrrolidin-1-yl)-piperidin-1-yl]-N-(1-phenyl-ethyl)-butyramide]: the Ki under setting [1] amounted to 51.2 nM.
As to `CN(Cc1ccc(C(F)(F)F)c(F)c1)C(=O)C(C)(CCN1CCC(N(C)S(C)(=O)=O)CC1)c1ccc(Cl)c(Cl)c1` (stereo not shown) [Example 45, 2-(3,4-Dichloro-phenyl)-N-(3-fluoro-4-trifluoromethyl-benzyl)-4-[4-(methanesulfonyl-methyl-amino)-piperidin-1-yl]-2,N-dimethyl-butyramide], the Ki runs as follows: under setting [1], 8.5 nM; under setting [2], 8.5 nM.
On to `CC(=O)NC1CCN(CCC(C)(C(=O)N[C@@H](CO)c2ccc(Cl)c(Cl)c2)c2ccc(Cl)c(Cl)c2)CC1` (single isomer, unassigned; diastereoisomer 1) [Example 158], for which the inhibitory constant (Ki) under setting [1] is 34.6 nM.
Still for that read-out and setting: under `CC(CCN1CCC(NS(C)(=O)=O)CC1)(C(=O)NCc1ccc(Cl)c(C(F)(F)F)c1)c1ccc(Cl)c(Cl)c1` (stereo not shown) [Example 24, N-(4-Chloro-3-trifluoromethyl-benzyl)-2-(3,4-dichloro-phenyl)-4-(4-methanesulfonyl-amino-piperidin-1-yl)-2-methyl-butyramide] stands 71.4 nM; under `CC(=O)N(C)C1CCN(CCC(C)(C(=O)N(C)Cc2ccc(F)c(C(F)(F)F)c2)c2ccc(Cl)c(Cl)c2)CC1` (single isomer, unassigned) [Example 121, (S or R)-4-[4-(Acetyl-methyl-amino)-piperidin-1-yl]-2-(3,4-dichloro-phenyl)-N-(4-fluoro-3-trifluoromethyl-benzyl)-2,N-dimethyl-butyramide], 173 nM; under `CC(CCN1CCC(NS(C)(=O)=O)CC1)(C(=O)NCc1ccc(C(F)(F)F)cc1)c1ccc(Cl)c(Cl)c1` (stereo not shown) [Example 14, 2-(3,4-Dichloro-phenyl)-4-(4-methanesulfonyl-amino-piperidin-1-yl)-2-methyl-N-(4-trifluoromethyl-benzyl)-butyramide], 58 nM.
With `CCN(C1CCN(CCC(C)(C(=O)N(C)Cc2ccc(F)c(C(F)(F)F)c2)c2ccc(Cl)c(Cl)c2)CC1)S(C)(=O)=O` (stereo not shown) [Example 74, 2-(3,4-Dichloro-phenyl)-4-[4-(ethyl-methanesulfonyl-amino)-piperidin-1-yl]-N-(4-fluoro-3-trifluoromethyl-benzyl)-2,N-dimethyl-butyramide], the Ki under setting [1] is 1.3 nM and the Ki under setting [2] came out at 1.3 nM.
As to `CN(Cc1ccc(Cl)cc1)C(=O)C(CCN1CCC(N2CCCC2=O)CC1)c1ccccc1` (stereo not shown) [Example 114, N-(4-Chloro-benzyl)-N-methyl-4-[4-(2-oxo-pyrrolidin-1-yl)-piperidin-1-yl]-2-phenyl-butyramide], the Ki under setting [1] turned out to be 560 nM.
Turning to `CN(Cc1ccc(C(F)(F)F)nc1)C(=O)C(C)(CCN1CCC(NS(C)(=O)=O)CC1)c1ccc(Cl)c(Cl)c1` (stereo not shown) [Example 31, 2-(3,4-Dichloro-phenyl)-4-(4-methanesulfonyl-amino-piperidin-1-yl)-2,N-dimethyl-N-(6-trifluoromethyl-pyridin-3-ylmethyl)-butyramide], the Ki under setting [1] is 500 nM.
Consider `CN(Cc1ccc(Cl)c(Cl)c1)C(=O)C(C)(CCN1CCC(N(C2CC2)S(C)(=O)=O)CC1)c1ccc(Cl)c(Cl)c1` (stereo not shown) [Example 60, 4-[4-(Cyclopropyl-methanesulfonyl-amino)-piperidin-1-yl]-N-(3,4-dichloro-benzyl)-2-(3,4-dichloro-phenyl)-2,N-dimethyl-butyramide], for which the Ki under setting [1] is 2.6 nM and the Ki under setting [2] was found to be 2.6 nM.
For the molecule `CC(CCN1CCC(N2CCCC2=O)CC1)(C(=O)N[C@@H](CO)c1ccc(F)cc1)c1ccc(Cl)c(Cl)c1` (single isomer, unassigned) [Example 130, 2-(3,4-Dichloro-phenyl)-N-[(R)-1-(4-fluoro-phenyl)-2-hydroxy-ethyl]-2-(S or R) methyl-4-[4-(2-oxo-pyrrolidin-1-yl)-piperidin-1-yl]-butyramide], under setting [1], the Ki came to 101 nM.
Consider `CN(Cc1ccc(C(F)(F)F)c(F)c1)C(=O)C(C)(CCN1CCC(N(C2CC2)S(C)(=O)=O)CC1)c1ccc(Cl)c(Cl)c1` (stereo not shown) [Example 57, 4-[4-(Cyclopropyl-methanesulfonyl-amino)-piperidin-1-yl]-2-(3,4-dichloro-phenyl)-N-(3-fluoro-4-trifluoromethyl-benzyl)-2,N-dimethyl-butyramide], for which the Ki under setting [1] came out at 5.9 nM and the Ki under setting [2] worked out at 5.9 nM.
For the molecule `CC(CCN1CCC(NS(C)(=O)=O)CC1)(C(=O)NCc1ccc(Cl)c(F)c1)c1ccc(Cl)c(Cl)c1` (stereo not shown) [Example 22, N-(4-Chloro-3-fluoro-benzyl)-2-(3,4-dichloro-phenyl)-4-(4-methanesulfonyl-amino-piperidin-1-yl)-2-methyl-butyramide], under setting [1], the Ki stood at 70.8 nM.
Same read-out and setting: under `CS(=O)(=O)NC1CCN(CCC(C(=O)NCc2ccc(Cl)c(Cl)c2)c2ccc(Cl)c(Cl)c2)CC1` (stereo not shown) [Example 42, N-(3,4-Dichloro-benzyl)-2-(3,4-dichloro-phenyl)-4-(4-methanesulfonyl-amino-piperidin-1-yl)-butyramide] stands 192 nM.
